In a melting point compilation (Tetko et al.; mined from patent text by program, amines drawn as free bases though some values may be those of a salt):

| SMILES | melting point [°C] |
| --- | --- |
| Cc1cc(CCCCCCC(OS(=O)(=O)O)c2nnnn2C)on1 (stereo not given) | 58 to 60 |
| Nc1nc2c(ncn2OCC(O)CCP(=O)(O)O)c(=O)[nH]1 (stereo not given) | > 315 |
| Cc1ccc2c(O)ccnc2c1 | 233 to 235 |
| COC(=O)Cc1cc(Br)c(Sc2ccc(OC)c(C(C)C)c2)c(Br)c1 | 73 to 76 |
| CC1CCN(c2cc(C(C)(C)C)ns2)C1=O (stereo not given) | 111 to 113 |
| COC(=O)c1cc(-c2ccc(OC)c(OC)c2)nn(CC(C)C)c1=O | 104 to 106 |
| Nc1ccc(Sc2ccccc2)nc1N | 119 to 122 |
| O=C1OC(=O)C(c2ccccc2)=C1Cl | 82 to 83 |
| Cc1cc(C(=O)O)c(C)c2c1S(=O)(=O)CCC2(C)C | 209 |
| CCn1cc(C(=O)O)c(=O)c2cc(F)c(N3CCN(C)C(c4ccsc4)C3)cc21 (stereo not given) | 226 to 228 |
| ClCSc1nc(Cl)c(Cl)nc1Cl | 68 to 70 |
| CC(c1cccs1)N(O)C(N)=O (stereo not given) | 130 |
| CC1CCC(C(C)C)C(OC(=O)[C@H]2C[C@@H]2C(=O)OC2CC(C)CCC2C(C)C)C1 (stereo not given in full) | 95 to 96 |
| CCCCCCCCCCCCNC(=O)c1ccccc1N | 73 to 75 |
| CCCn1c(Cl)cc2cnc(C)n2c1=O | 125 to 126 |
| COc1ccc2c(=O)n3c(cc2c1)S(=O)(=O)CCC3 | 256 to 257 |
| O=C1CN(CC2CCN(c3ncc4ncnc(Nc5ccc(F)c(Cl)c5)c4n3)CC2)CCO1 | 202 to 204 |
| Cc1ccc(C=CC(=O)C=Cc2ccc(C)cc2)cc1 | 174 to 176 |
| O=C1Nc2ccncc2N2CCNCC12 (stereo not given) | 303 to 306 |
| CN(O)C(=O)Nc1ccc([N+](=O)[O-])c(C(F)(F)F)c1 | 129 to 130 |

| SMILES | melting point [°C] |
| --- | --- |
| Cc1noc(C)c1-c1cncc(OC2SCC(O)C(O)C2O)c1 (stereo not given) | 222 to 223 |
| COCCOc1cc(N(C)S(=O)(=O)c2cccs2)c2[nH]c(C3=NCC(CC(N)=O)S3)cc2c1 (stereo not given) | 189 to 190 |
| COc1ccc(C(=O)CCC#N)cc1 | 94 |
| CCC(=O)c1cc(CC)c(OC)cc1OC | 64 to 65 |
| Cc1c(F)c(F)c(F)c2c1c(=O)c(C(=O)O)cn2C1CC1 | 234 to 235 |
| CCCCNc1c([N+](=O)[O-])cc(C(=O)O)cc1S(N)(=O)=O | 192 |
| CC(C)(C)c1cc(-c2nn(CC(=O)N3CCOCC3)c3ncccc23)cc(C(C)(C)C)c1O | 207 to 209 |
| O=C1NCCc2cc(O)ccc21 | 204 to 206 |
| CCCC1(Cl)Cc2cc(OCC(=O)O)c(Cl)c(Cl)c2C1=O (stereo not given) | 185 to 187 |
| O=S(=O)(c1ccc(-n2ncnc2-c2cnccn2)cc1)C(F)F | 152 to 154 |
| CCOC(=O)CC(=O)N1C(C(=O)OC(C)(C)C)CCCN1C(=O)OCc1ccccc1 (stereo not given) | 45 to 47 |
| Cc1c(Br)ccc2c1oc1ccccc12 | 124 to 125 |
| CN1CCN(c2cc3c(cc2F)c(=O)c(C(=O)O)cn3CCF)CC1 | 256 to 258 |
| CCOC(=O)C1C2C(=O)N(Cc3ccccc3)C(=O)C12 (stereo not given) | 190 |
| CC(C)(C)OC(=O)NCCN(O)C(N)=O | 144 to 146 |
| NNc1ncccc1-c1ccccn1 | 64 to 65 |
| Cn1cc(C(=S)NCc2ccc(Cl)cc2)c(=O)c2cc(C#CCO)ccc21 | 200 to 201 |
| CCCCCCC1(CCn2ccnc2)SCCS1 | 110 to 116 |
| O=Cc1cc(Br)cc(Cc2cccnc2)c1 | 97 to 98 |
| N#CC(C#N)=C1Sc2cnn(-c3ccccc3)c(=O)c2S1 | 240 |

| SMILES | melting point [°C] |
| --- | --- |
| CCc1ccc(CC2N=C(c3ccc(F)cc3)c3cc(Cl)ccc3NC2=O)cc1CC (stereo not given) | 88 to 90 |
| CC1(C(=O)O)COc2ccccc2O1 (stereo not given) | 125 to 130 |
| COc1cc(CCNC(=O)Cc2ccc(Br)cc2)cc(OC)c1 | 86 to 88 |
| CCN1CCCC1CNC(=O)c1cc(NS(=O)(=O)NC(C)(C)C)c(C)cc1OC (stereo not given) | 167 to 168 |
| CCCCCCCCCCCCCCCCCCSC(=O)Nc1ccc(NC(=O)NS(=O)(=O)c2ccc(OC)cc2)cc1 | 195 |
| Cc1c(Br)nc2n1CCc1ccccc1C2=C1CCN(C)CC1 | 116 |
| CC(C=[N+]([O-])C(C)(C)C)c1ccccc1 (stereo not given) | 56 |
| Cn1nc(CO)nc1NCC(O)CCOc1cccc(CN2CCCCC2)c1 (stereo not given) | 148 |
| CCOC(=O)C1=C(C)NC(N)=C(C(=O)OC(C)C)C1c1ccccc1C#N (stereo not given) | 200 |
| COC(=O)CC[C@H](NC(=O)c1ccc(N(C)CCc2c(NC(C)=O)nc(NC(C)=O)[nH]c2=O)cc1)C(=O)OC | 168 to 175 |
| CC(C)c1cc([N+](=O)[O-])c(O)c(C(C)C)c1NC(=O)CN1CCN(CCSc2nc3ccccc3o2)CC1 | 139 to 141 |
| Oc1c(Br)cc(Cl)cc1Cc1cc(F)cc(Cc2cc(Cl)cc(Br)c2O)c1O | 164 |
| COc1cc(-c2nn(C(C)(C)C)c(N)c2C(N)=O)cc(OC)c1OC | 180 to 192 |
| Cc1ccccc1C(=O)N[C@@H]1CCc2cccc(N3CCN(C)CC3)c2C1 | 179 to 180 |
| CC(C)c1cccc(C(C)C)c1NC(=O)CN1CCN(CCSc2nc3ncccc3o2)CC1 | 153 to 154 |
| CCC(=O)C1=CCC(c2c(C)c(C)c3c(c2Cl)CC(C)(C)C3)CC1=O (stereo not given) | 74 to 75 |
| Nc1nc(Cl)cc(NCCO)n1 | 143 to 146 |
| CCCCOc1cc(-n2c(=O)cc(C(F)(F)F)n(C)c2=O)c(F)cc1Br | 73 |
| COC1=CC(=O)NCC1 | 115 to 117 |

Second part, the compound after the results:

| melting point [°C] | SMILES |
| --- | --- |
| 192 to 194 | CN1CCN(Cc2ccccc2)CC(NC(=O)c2n[nH]c3ccccc23)C1 (stereo not given) |
| 149 to 150 | COC(=O)C1C(=O)N(Cc2ccc(Br)cc2F)C(=O)c2ccccc21 (stereo not given) |
| 98 to 100 | Fc1ccc(-c2c[nH]c3ccccc23)cc1 |
| 195 to 210 | O=c1oc2c([N+](=O)[O-])c(O)c(O)cc2cc1-c1ccccc1 |
| 107 to 108 | Cc1oc(-c2ccccc2)nc1CCc1ccc(/C=C/C=C/C=O)cc1 |
| 249 to 251 | N=C(NO)c1ccccc1-n1cnc2cnc3ccc(-c4ccccc4)cc3c21 |
| > 250 | COc1ccc(NC(=O)c2c(Cl)cccc2Cl)c2nccc(NNC(C)=O)c12 |
| 114 to 118 | CCN(CC)C(=O)Nc1ccc(S(=O)(=O)N2C(=O)C(NCCOCCO)(c3ccccc3Cl)c3cc(Cl)ccc32)cc1 (stereo not given) |
| 115 to 117 | CC(=O)C(=NO)c1ccc(OC[Si](C)(C)c2ccc(F)cc2)cc1 |
| 247 to 250 | COc1cc2c(cc1/C=C/CCO)oc1cc(-c3ccccc3Cl)c3c(c12)C(=O)NC3=O |
| 160 to 161 | NC(=O)CNC(=O)c1cccc(-c2cccc3sc(Cc4ccc(F)c(F)c4)cc23)c1 |
| 121 to 122 | O=c1cc(C(F)(F)F)ccn1-c1c(Cl)cc(CF)cc1Cl |
| 195 to 197 | CCCOc1ccccc1-c1nc2nnc(SC)nc2c(=O)[nH]1 |
| 186 to 187 | Cc1c(-c2ccccc2)oc2c(S(=O)(=O)NCCO)cccc2c1=O |
| 145 to 146 | COc1ccc2c(c1)cc(-c1nc(C)no1)n2-c1ccc(CNC(=O)C2(N)CC2)cc1 |
| 138 to 140 | COCOc1c(-c2cncc3cccc([N+](=O)[O-])c23)ccc(OC)c1OC |
| 183 | Cc1cc(COc2nn3c(-c4ccccc4F)nncc3c2-c2ccccc2F)nn1C |
| 51 to 53 | CCOCCn1c(C2CCN(C)C(c3ccc(C(C)(C)C)cc3)C2)nc2ccccc21 (stereo not given) |
| 170 | COc1ccc(C(=O)NCCc2ccc(-c3ccc(O)cc3)cc2)cc1OC |
| 176 to 189 | Cc1cc(NC(=O)NC(=O)c2ccccc2Cl)nc(C)c1-c1ccccc1 |
| 233 to 257 | CNC(=O)c1ccc(C=CC(=O)NCC(=O)N(C)c2ccc(Cl)c(COc3cccc4c(OCC(=O)O)cc(C)nc34)c2Cl)cc1 |

| melting point [°C] | SMILES |
| --- | --- |
| 201 to 203 | CC(=O)Nc1nc2c(Oc3cc(-c4ccc(C(F)(F)F)cc4OCc4ccccc4)ncn3)cccc2s1 |
| 108 to 110 | CCOC(=O)N1CCN2c3ccccc3Cc3ccccc3C2C1 (stereo not given) |
| 160 to 161 | COc1ccc(N2CCOC(c3ccc(C(F)(F)F)cc3)C2)c(-c2ccc(N(C)C)cc2)n1 (stereo not given) |
| 121 to 126 | COc1cc(C(O)CN2CCC(C(c3ccccc3)c3ccccc3)CC2)on1 (stereo not given) |
| 108 to 109 | CCOc1nn(-c2ccc(C(F)(F)F)cc2)cc1CCCOc1cccc(CC(=O)O)c1 |
| 121 to 123 | C#CCOc1ccc2c(c1)c(-c1ccc(C(C)C)cc1)nc(=O)n2Cc1cccnc1O |
| 166 | CC(C)(C)NC(=O)CN(C(=O)CN1C(=O)c2ccccc2C1=O)c1ccccc1 |
| 172 to 175 | CS(=O)(=O)c1ccc(-c2nc(C(F)(F)F)nc(N=[N+]=[N-])c2-c2ccccc2)cc1 |
| 178 to 179 | O=C1N(Cc2ccc(-c3noc(C(F)(F)F)n3)cc2)c2ccccc2C12COc1cc3c(cc12)CCO3 (stereo not given) |
| 191 to 192 | CCCCn1nc(Cc2ccc(-c3ccccc3-c3nnn[nH]3)cc2)c(C(=O)O)c1CC |
| 235 to 236 | O=C(Nc1cccnn1)N1CCN(c2ccnc(-c3cccc(F)c3F)n2)CC1 |
| 117 | O=C(Nc1cccc(Br)c1)Oc1ccc2c(c1)CCCN2Cc1ccccc1 |
| 123 to 125 | CC(C)(C)CC(C)(C)c1cc(-c2ccccc2)c(O)c(-n2nc3ccc(-c4ccccc4)cc3n2)c1 |
| 93 to 95 | C#CCOc1cc(-c2ncnc(C(F)F)c2Cl)c(F)cc1Cl |
| 180 to 181 | Cc1c(NC(=O)c2ccc(OCc3ccccc3)cc2F)ccc2cc(CN3CCCCC3)cnc12 |
| 199 | COc1ccc2ccc(Nc3cc(-c4ccc(C(F)(F)F)cc4)ncn3)cc2n1 |
| 133 to 135 | COc1ccc(-c2cccc(C(N)=O)c2)cc1OC1CCCC1 |
| 258 to 260 | CCOC(=O)N1CCn2c(nc(-c3ccncc3)cc2=O)C(NC(=O)c2ccc3c(c2)CNCC3)C1 (racemic) |
| 203 | NS(=O)(=O)c1ccc(C(=O)NCc2ccccc2)s1 |
| 222 to 223 | CC(=S)Nc1ccc(-c2nc3ccccc3s2)cc1 |
